The text below walks through data of US20090291088A1, “THERAPEUTIC COMBINATIONS OF ANTI-IGF-1R ANTIBODIES AND OTHER COMPOUNDS” (Biogen Idec MA Inc., priority 2008, published 2009).

The test system of assay [1] is IGF-1R. The experiment in a line: Biacore analysis of the IGF-1R-Fc mutant library: M13-C06 Fab binding to receptor-Fc captured on M13-C06 chip. The arrangement: species or system human. Particulars: M13-C06 Fab binding to mutant hIGF-1R-Fc captured on M13-C06 chip. From the text: Both mIGF-1R-Fc and hIGF-1R-Fc bind with high apparent affinity to the M13-C06, M14-C03, and M14-G11 sensorchip surfaces described above due to their highly multivalent nature induced by the incorporation of two separate homodimeric regions (IGF-1R and IgG1-Fc). To distinguish between the actual high affinity binding hIGF-1R-Fc to M13-C06 and the low affinity binding of mIGF-1R-Fc to M13-C06, the receptor-Fc fusions were captured on the M13-C06 sensorchip surface followed by an additional soluble M13-C06 Fab binding event. […] After, completion of the receptor-Fc loading step, flow rates were elevated to 5 μl/min. 10 nM, […], and 1 nM M13-C06 Fab concentrations were injected (50 μL) subsequent to the loading of each receptor-Fc construct. At the end of each sensorgram, the flow rate was elevated to 30 μl/min and the chip surface was regenerated by 2×10 μL injections of 0.1 M glycine, pH 2.

Assay [2] concerns IGF-1R-Fc. The experiment in a line: Surface plasmon resonance analysis of the IGF-1R-Fc mutant library (46 mutants). Particulars: for C06 binding: M13-C06 Fab; for C06 binding / G11 binding / C03 binding / P1E2 binding / αIR3 binding: KD relative to WT hIGF-1R-Fc; for G11 binding: M14-G11 Fab; for C03 binding: M14-C03 Fab; for P1E2 binding: P1E2 antibody; for αIR3 binding: αIR3 antibody. It counts as binding, human. The procedure: Surface plasmon resonance (SPR) experiments were performed on a Biacore 3000 instrument set to 25° C. Both mIGF-1R-Fc and hIGF-1R-Fc bind with high apparent affinity to research grade CM5 sensorchip surfaces containing immobilized M13-C06, M14-C03, and M14-G11. The antibody sensorchip surfaces were prepared by injecting each antibody (diluted 100 μg/mL in 10 mM Acetate, pH 4.0) over EDC/NHS-activated sensorchip surfaces according to the standard protocol of the manufacturer. The ability of mIGF-1R-Fc to bind the antibody surfaces was the result of high apparent avidity of the protein. Both hIGF-1R-Fc and mIGF-1R-Fc proteins oligomerize due to the incorporation of two separate homodimeric regions (IGF-1R and IgG1-Fc). To distinguish between actual high affinity antibody binding to hIGF-1R-Fc and low affinity antibody binding to mIGF-1R-Fc, the receptor-Fc fusions were captured on the M13-C06 and M14-G11 sensorchip surfaces followed by an additional injection of antibody (αIR3 and P1E2) or antibody Fab (M13-C06, M14-C03, and M14-G11). […] After, completion of the receptor-Fc loading step, flow rates were elevated to 5 μl/min. Solutions containing M13-C06 Fab or αIR3 antibody at 10 nM, 3 nM, or 1 nM or M14-C03 Fab, M14-G11 Fab, or P1E2 antibody at 30 nM, 10 nM, or 3 nM were injected (50 μL) subsequent to the loading of each receptor-Fc construct. Dissociation was measured for 7 minutes after the antibody injections were complete. Finally, the flow rate was elevated to 30 μL/min and the chip surfaces were regenerated by 2×10 μL injections of 0.1 M glycine, pH 2.
M13-C06, M14-C03, M14-G11, P1E2 and αIR3 were assayed for their ability to interact with each of the mutant IGF-1R-Fc fusion constructs using surface plasmon resonance (Biacore). To remove the uncertain concentrations of the IGF-1R-Fc fusion constructs as a variable in the assay, each mutant construct was captured on a research grade CM5 chip containing ˜10,000 RU immobilized […], M14-C03, and M14-G11 antibody. To enhance our ability to visualize attenuations in antibody binding to the captured mutant IGF-1R constructs, we utilized enzymatically derived M13-C06, M14-C03, and M14-G11 antigen binding fragments (Fabs).

For SD001: hIGF-1R-Fc mutant Y28A, the “Biacore Relative RUmax” value in assay [1] is on record as 0.6. In assay [2], the C06 binding result is recorded as “NE (No effect (NE): measured KD within 2.5-fold of WT hIGF-1R-Fc)” and the G11 binding entry is “NE (No effect (NE): measured KD within 2.5-fold of WT hIGF-1R-Fc)”.
Consider SD002: hIGF-1R-Fc mutant M156A, for which, in assay [1], the “Biacore Relative RUmax” value is reported as 1.2. Besides, in assay [2], the C06 binding result is “NE (No effect (NE): measured KD within 2.5-fold of WT hIGF-1R-Fc)” and the G11 binding result is given as “NE (No effect (NE): measured KD within 2.5-fold of WT hIGF-1R-Fc)”.
Consider SD101: hIGF-1R-Fc mutant S427L, for which, in assay [2], the C06 binding result is “NE (No effect (NE): measured KD within 2.5-fold of WT hIGF-1R-Fc)” and the C03 binding entry is on record as “NE (No effect (NE): measured KD within 2.5-fold of WT hIGF-1R-Fc)”.
As for SD102: hIGF-1R-Fc mutant E459A S460A, in assay [2], the C06 binding entry is given as “S (Strong (S): binding to antibody was ablated by mutation)” and the C03 binding result is recorded as “S (Strong (S): binding to antibody was ablated by mutation)”.
With SD103: hIGF-1R-Fc mutant D461A V462T, in assay [2], the “effect of mutation on M13-C06 and M14-C03 Fab binding” value is “no reactivity towards the M13-C06 and M14-C03 Fabs”; the C06 binding result is “S-most”; the C03 binding result was “S-most”.
As for SD104: hIGF-1R-Fc mutant H464A, in assay [2], the C06 binding entry is reported as “S (Strong (S): binding to antibody was ablated by mutation)” and the C03 binding result is reported as “S (Strong (S): binding to antibody was ablated by mutation)”.
Turning to SD105: hIGF-1R-Fc mutant T466L S467Y, in assay [2], the C06 binding result was “W (Weak (W): measured KD between 2.5-10-fold higher than WT)” and the C03 binding entry is given as “W (Weak (W): measured KD between 2.5-10-fold higher than WT)”.
As for SD106: hIGF-1R-Fc mutant T468R, in assay [2], the C06 binding result was “NE (No effect (NE): measured KD within 2.5-fold of WT hIGF-1R-Fc)” and the C03 binding entry is listed as “NE (No effect (NE): measured KD within 2.5-fold of WT hIGF-1R-Fc)”.
On to SD107: hIGF-1R-Fc mutant T478R, for which, in assay [2], the C06 binding result is “NE (No effect (NE): measured KD within 2.5-fold of WT hIGF-1R-Fc)” and the C03 binding entry was “W (Weak (W): measured KD between 2.5-10-fold higher than WT)”.
In the same order, the values of SD108: hIGF-1R-Fc mutant H480E are “S (Strong (S): binding to antibody was ablated by mutation)” and “S (Strong (S): binding to antibody was ablated by mutation)”.
The like results for SD109: hIGF-1R-Fc mutant Y482A R483W were, in that order, “S (Strong (S): binding to antibody was ablated by mutation)” and “S (Strong (S): binding to antibody was ablated by mutation)”.
The like results for SD110: hIGF-1R-Fc mutant E533H were, in that order, “W (Weak (W): measured KD between 2.5-10-fold higher than WT)” and “S (Strong (S): binding to antibody was ablated by mutation)”.
Consider SD111: hIGF-1R-Fc mutant I564T R565A, for which, in assay [2], the C06 binding entry is “W (Weak (W): measured KD between 2.5-10-fold higher than WT)” and the C03 binding entry is “W (Weak (W): measured KD between 2.5-10-fold higher than WT)”.
Regarding SD112: hIGF-1R-Fc mutant K568A, in assay [2], the C06 binding result was “NE (No effect (NE): measured KD within 2.5-fold of WT hIGF-1R-Fc)” and the C03 binding entry is reported as “W (Weak (W): measured KD between 2.5-10-fold higher than WT)”.
The like results for SD113: hIGF-1R-Fc mutant E570A I571T were, in that order, “S (Strong (S): binding to antibody was ablated by mutation)” and “S (Strong (S): binding to antibody was ablated by mutation)”.
With SD201: hIGF-1R-Fc mutant D248A, in assay [2], the G11 binding result was “S (Strong (S): binding to antibody was ablated by mutation)”, the P1E2 binding result is given as “W (Weak (W): measured KD between 2.5-10-fold higher than WT)” and the αIR3 binding result is “S (Strong (S): binding to antibody was ablated by mutation)”.
SD202: hIGF-1R-Fc mutant D250S: in assay [2], the G11 binding result is listed as “S (Strong (S): binding to antibody was ablated by mutation)”, the P1E2 binding entry was “NE (No effect (NE): measured KD within 2.5-fold of WT hIGF-1R-Fc)” and the αIR3 binding result is given as “NE (No effect (NE): measured KD within 2.5-fold of WT hIGF-1R-Fc)”.
On to SD203: hIGF-1R-Fc mutant N254A, for which, in assay [2], the G11 binding entry is “M (Medium (M): measured KD between 10-100-fold higher than WT)”, the P1E2 binding result is listed as “S (Strong (S): binding to antibody was ablated by mutation)” and the αIR3 binding result is “M (Medium (M): measured KD between 10-100-fold higher than WT)”.
For SD204: hIGF-1R-Fc mutant S257K, in assay [2], the G11 binding entry is recorded as “W (Weak (W): measured KD between 2.5-10-fold higher than WT)”, the P1E2 binding result is reported as “M (Medium (M): measured KD between 10-100-fold higher than WT)” and the αIR3 binding result is reported as “NE (No effect (NE): measured KD within 2.5-fold of WT hIGF-1R-Fc)”.
In the same order, the values of SD205: hIGF-1R-Fc mutant E259K S260N are “W (Weak (W): measured KD between 2.5-10-fold higher than WT)”, “NE (No effect (NE): measured KD within 2.5-fold of WT hIGF-1R-Fc)” and “NE (No effect (NE): measured KD within 2.5-fold of WT hIGF-1R-Fc)”.
With SD206: hIGF-1R-Fc mutant S263R, in assay [2], the G11 binding result is listed as “W (Weak (W): measured KD between 2.5-10-fold higher than WT)”, the P1E2 binding entry is listed as “NE (No effect (NE): measured KD within 2.5-fold of WT hIGF-1R-Fc)” and the αIR3 binding result is given as “W (Weak (W): measured KD between 2.5-10-fold higher than WT)”.
Consider SD207: hIGF-1R-Fc mutant G265Y, for which, in assay [2], the G11 binding entry was “W (Weak (W): measured KD between 2.5-10-fold higher than WT)”, the P1E2 binding result was “S (Strong (S): binding to antibody was ablated by mutation)” and the αIR3 binding entry was “S (Strong (S): binding to antibody was ablated by mutation)”.
As for SD208: hIGF-1R-Fc mutant V301Y, in assay [2], the G11 binding result is on record as “NE (No effect (NE): measured KD within 2.5-fold of WT hIGF-1R-Fc)”, the P1E2 binding result is given as “NE (No effect (NE): measured KD within 2.5-fold of WT hIGF-1R-Fc)” and the αIR3 binding result was “W (Weak (W): measured KD between 2.5-10-fold higher than WT)”.
Turning to SD209: hIGF-1R-Fc mutant K306E, in assay [2], the G11 binding result is listed as “NE (No effect (NE): measured KD within 2.5-fold of WT hIGF-1R-Fc)”, the P1E2 binding result is “NE (No effect (NE): measured KD within 2.5-fold of WT hIGF-1R-Fc)” and the αIR3 binding result is “NE (No effect (NE): measured KD within 2.5-fold of WT hIGF-1R-Fc)”.
For the substance SD210: hIGF-1R-Fc mutant T308E, in assay [2], the G11 binding entry was “NE (No effect (NE): measured KD within 2.5-fold of WT hIGF-1R-Fc)”, the P1E2 binding entry is on record as “NE (No effect (NE): measured KD within 2.5-fold of WT hIGF-1R-Fc)” and the αIR3 binding result is reported as “W (Weak (W): measured KD between 2.5-10-fold higher than WT)”.
On to SD211: hIGF-1R-Fc mutant K327N, for which, in assay [2], the G11 binding result is given as “NE (No effect (NE): measured KD within 2.5-fold of WT hIGF-1R-Fc)”, the P1E2 binding result is recorded as “NE (No effect (NE): measured KD within 2.5-fold of WT hIGF-1R-Fc)” and the αIR3 binding entry is reported as “W (Weak (W): measured KD between 2.5-10-fold higher than WT)”.
As to SD212: hIGF-1R-Fc mutant L379R, in assay [2], the G11 binding entry is “NE (No effect (NE): measured KD within 2.5-fold of WT hIGF-1R-Fc)”, the P1E2 binding entry is listed as “NE (No effect (NE): measured KD within 2.5-fold of WT hIGF-1R-Fc)” and the αIR3 binding entry is listed as “W (Weak (W): measured KD between 2.5-10-fold higher than WT)”.
For SDWT: wild-type hIGF-1R-Fc, the “Biacore Relative RUmax” value in assay [1] is reported as 1.0.
